Results taken from the NIST ThermoML archive (doi:10.1016/j.fluid.2005.08.001).

Columns and labels:
[1] = excess molar enthalpy (molar enthalpy of mixing); xn = mol fraction of the nth substance listed; settings: 298.15 K, 101.33 kPa, Liquid, Flow calorimetry
[2] = 298.15 K; 101.33 kPa; Liquid

CCN(CC)CC [triethylamine] + CCCCO
[1]
Settings | excess molar enthalpy [kcal/mol]
x2 = 0.0501 | -0.0212
x2 = 0.1 | -0.0787
x2 = 0.1502 | -0.13
x2 = 0.1999 | -0.156
x2 = 0.2536 | -0.196
x2 = 0.3001 | -0.228
x2 = 0.3499 | -0.266
x2 = 0.3999 | -0.282
x2 = 0.4499 | -0.304
x2 = 0.5 | -0.322
x2 = 0.5499 | -0.331
x2 = 0.5999 | -0.336
x2 = 0.6499 | -0.33
x2 = 0.7001 | -0.315
x2 = 0.7501 | -0.292
x2 = 0.7999 | -0.259
x2 = 0.85 | -0.219
x2 = 0.8999 | -0.166
x2 = 0.9499 | -0.0879
x2 = 0.9792 | -0.0411

CCCCCC [hexane]
Settings | mass density [kg/m3]
[2] | 654.9

CCN(CC)CC [triethylamine] + CCO
[1]
Settings | excess molar enthalpy [kcal/mol]
x2 = 0.1116 | -0.0893
x2 = 0.1621 | -0.134
x2 = 0.2096 | -0.163
x2 = 0.2542 | -0.197
x2 = 0.2963 | -0.225
x2 = 0.3361 | -0.243
x2 = 0.4093 | -0.285
x2 = 0.5056 | -0.319
x2 = 0.5623 | -0.329
x2 = 0.614 | -0.33
x2 = 0.7047 | -0.313
x2 = 0.7991 | -0.262
x2 = 0.8477 | -0.219
x2 = 0.8774 | -0.187
x2 = 0.9052 | -0.153
x2 = 0.9311 | -0.116
x2 = 0.9555 | -0.0767

CCCCCC [hexane] + CCCCO
[1]
Settings | excess molar enthalpy [kcal/mol]
x2 = 0.0199 | 0.0527
x2 = 0.0399 | 0.0685
x2 = 0.05 | 0.0738
x2 = 0.06 | 0.0783
x2 = 0.0799 | 0.087
x2 = 0.0999 | 0.0943
x2 = 0.1499 | 0.11
x2 = 0.2 | 0.123
x2 = 0.25 | 0.129
x2 = 0.2999 | 0.133
x2 = 0.35 | 0.134
x2 = 0.4001 | 0.131
x2 = 0.4501 | 0.126
x2 = 0.5 | 0.12
x2 = 0.55 | 0.112
x2 = 0.6001 | 0.102
x2 = 0.6501 | 0.0909
x2 = 0.7 | 0.0788
x2 = 0.7501 | 0.0665
x2 = 0.7999 | 0.0535
x2 = 0.85 | 0.0399
x2 = 0.8999 | 0.0261
x2 = 0.95 | 0.011

CCCCO [butan-1-ol]
Settings | mass density [kg/m3]
[2] | 805.74

CCN(CC)CC [triethylamine] + CCCCCC
[1]
Settings | excess molar enthalpy [kcal/mol]
x1 = 0.025 | 0.00134
x1 = 0.05 | 0.00368
x1 = 0.075 | 0.00468
x1 = 0.1 | 0.007
x1 = 0.15 | 0.0104
x1 = 0.2 | 0.013
x1 = 0.25 | 0.0152
x1 = 0.3 | 0.0168
x1 = 0.35 | 0.0182
x1 = 0.4 | 0.019
x1 = 0.45 | 0.0193
x1 = 0.5 | 0.0196
x1 = 0.6 | 0.019
x1 = 0.65 | 0.0173
x1 = 0.7 | 0.0162
x1 = 0.75 | 0.0139
x1 = 0.8 | 0.0122
x1 = 0.85 | 0.00927
x1 = 0.9 | 0.00667
x1 = 0.95 | 0.00323

CCCCCC [hexane] + CCO
[1]
Settings | excess molar enthalpy [kcal/mol]
x2 = 0.0544 | 0.0669
x2 = 0.1056 | 0.0992
x2 = 0.1538 | 0.115
x2 = 0.1994 | 0.126
x2 = 0.2426 | 0.132
x2 = 0.2835 | 0.136
x2 = 0.3592 | 0.139
x2 = 0.4277 | 0.136
x2 = 0.4596 | 0.134
x2 = 0.49 | 0.135
x2 = 0.5191 | 0.133
x2 = 0.5992 | 0.122
x2 = 0.6472 | 0.116
x2 = 0.7125 | 0.106
x2 = 0.8064 | 0.0848
x2 = 0.8997 | 0.0535
x2 = 0.9528 | 0.0291

CCO [ethanol]
Settings | mass density [kg/m3]
[2] | 785.07

CCN(CC)CC [triethylamine]
Settings | mass density [kg/m3]
[2] | 722.56
